Source: patent US8859776B2, “Substituted piperidines that increase p53 activity and the uses thereof” (Merck Sharp & Dohme Corp., priority 2009, dated 2014)

The molecules below were run against HDM2 protein (Homo sapiens, UniProt Q00987) (assay: fluorescence polarization assay for HDM2 inhibitory activity). Settings: read-out: FP (IC 50 uM).
Type: binding
Description: The inventive compounds can readily be evaluated to determine activity at the HDM2 protein by known methods such as the fluorescence polarization screening assay that measures the inhibitory concentration that achieves 50% of maximal activity (FP IC50) and the dissociation constant for inhibitor binding (FP Ki). [Zhang et al., J. Analytical Biochemistry 331: 138-146 (2004)].

Sequence of HDM2 protein (Q00987 whole entry): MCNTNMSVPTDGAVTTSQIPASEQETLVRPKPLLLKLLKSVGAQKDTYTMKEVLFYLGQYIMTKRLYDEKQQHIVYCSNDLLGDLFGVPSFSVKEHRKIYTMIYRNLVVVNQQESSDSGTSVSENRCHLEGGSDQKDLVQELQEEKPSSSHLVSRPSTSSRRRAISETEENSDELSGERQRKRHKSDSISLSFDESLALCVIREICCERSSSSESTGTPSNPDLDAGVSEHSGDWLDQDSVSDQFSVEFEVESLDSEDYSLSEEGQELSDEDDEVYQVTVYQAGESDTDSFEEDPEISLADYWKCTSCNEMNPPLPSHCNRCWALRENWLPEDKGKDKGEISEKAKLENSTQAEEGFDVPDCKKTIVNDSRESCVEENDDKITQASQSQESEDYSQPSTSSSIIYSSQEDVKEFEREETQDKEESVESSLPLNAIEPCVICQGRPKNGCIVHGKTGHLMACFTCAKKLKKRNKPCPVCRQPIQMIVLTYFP

IC50	Compound
0.013 µM	CCC[C@H]1N(C(=O)c2cnccc2C(F)(F)F)CCC[C@@]1(Oc1ccc(C(F)(F)F)cc1)C(=O)N1CCC(C#N)(c2ccccc2CCC(=O)O)CC1 [Compound A83]
0.011 µM	CCC[C@H]1N(C(=O)c2cnccc2C(F)(F)F)CCC[C@@]1(Oc1csc(C(F)(F)F)c1)C(=O)N1CCC(c2ccccc2CCc2nnn[nH]2)CC1 [Compound A133, (4-(2-(2-(1H-tetrazol-5-yl)ethyl)phenyl)piperidin-1-yl)((2R,3S)-2-propyl-1-(4-(trifluoromethyl)nicotinoyl)-3-(5-(trifluoromethyl)thiophen-3-yloxy)piperidin-3-yl)methanone]
0.009 µM	CCC[C@H]1N(C(=O)c2cnccc2C(F)(F)F)CCC[C@@]1(Oc1csc(C(F)(F)F)c1)C(=O)N1CCC(c2ccccc2OCCCC(=O)NS(=O)(=O)C2CC2)CC1 [Compound A2]
0.019 µM	CCC[C@H]1N(C(=O)c2cnccc2C(F)(F)F)CCC[C@@]1(Oc1csc(C(F)(F)F)c1)C(=O)N1CCC(c2nn[nH]n2)(c2ccccc2OC)CC1 [Compound A54]
0.011 µM	CCC[C@H]1N(C(=O)c2ncccc2C(F)(F)F)CCC[C@@]1(Oc1csc(C(F)(F)F)c1)C(=O)N1CCC(O)(c2ccccc2OCCCP(=O)(O)O)CC1 [Compound A89, 3-(2-(4-hydroxy-1-((2R,3S)-2-propyl-1-(3-(trifluoromethyl)picolinoyl)-3-(5-(trifluoromethyl)thiophen-3-yloxy)piperidine-3-carbonyl)piperidin-4-yl)phenoxy)propylphosphonic acid]
0.014 µM	CCC[C@H]1N(C(=O)c2cnccc2C(F)(F)F)CCC[C@@]1(Oc1csc(C(F)(F)F)c1)C(=O)N1CCC(C#N)(c2ccccc2OCCCCC(=O)O)CC1 [Compound A4]
0.008 µM	CCC[C@H]1N(C(=O)c2ncccc2C(F)(F)F)CCC[C@@]1(Oc1csc(C(F)(F)F)c1)C(=O)N1CCC(O)(c2ccccc2O[C@@H]2CC[C@](C)(C(=O)NS(C)(=O)=O)C2)CC1 [Compound A145]
